From patent US7989469B2, “Certain chemical entities, compositions, and methods” (Cytokinetics, Incorporated, priority 2008, dated 2011)

System: rabbit skeletal muscle myofibril preparations (approximately 90% fast fibers)
Assay: Activation of fast skeletal muscle fibers: enzymatic activity of myofibril preparations (PUMA assay system)
Type: biochemical
Parameters: unit not given here
Details: detergent treated myofibrils at pCa25%, 500 μM ATP
From the text: Fast fiber activators were identified by measuring the enzymatic activity of muscle myofibril preparations using the proprietary PUMA™ (see, e.g., U.S. Pat. Nos. 6,410,254, 6,743,599, 7,202,051, and 7,378,254) assay system. Myofibril preparations consisted of rabbit skeletal muscle (approximately 90% fast fibers) that had been treated with a detergen (triton X-100) to remove cellular membranes and then homogenized. This preparation retained all of the sarcomeric components in a native conformation and the enzymatic activity was still regulated by calcium. Compounds were tested using a myofibril suspension and a level of calcium sufficient to increase enzymatic activity of the myofibrils to 25% of their maximal rate (termed pCa25%). Enzymatic activity was tracked via a kinetic assay with a UV absorption readout. Hits were identified as compounds that increased the rate of enzymatic activity by greater than 40% at 40 μM. Myofibril preparations are calcium regulated and were screened at a level of calcium sufficient to produce a 25% increase in enzymatic rate. Detergent treated myofibrils were incubated with 500 μM ATP and 40 μM compound and a kinetic read of UV absorbance performed. Data was normalized to control wells.

Row | Molecule | AC1.4 Median (cells marked †: Mean value) | AC1.4 Median (median value (no †))
1 | 6-chloro-1-(ethylpropyl)-7-(3-fluorophenyl)imidazo[4,5-b]pyridin-2-ol | 0.248† | 
2 | 6-chloro-1-(ethylpropyl)-7-(2-methyl(4-pyridyl))imidazo[4,5-b]pyridin-2-ol |  | 14.091
3 | CCC(CC)n1c(O)nc2ncc(Cl)c(-c3ccccc3)c21 [6-chloro-1-(ethylpropyl)-7-phenylimidazo[4,5-b]pyridin-2-ol] | 0.110† | 
4 | 6-chloro-1-(ethylpropyl)-7-(1-methyl(1H-indazol-6-yl))imidazo[4,5-b]pyridin-2-ol |  | 20.233
5 | 6-chloro-1-(ethylpropyl)-7-(6-methoxy(3-pyridyl))imidazo[4,5-b]pyridin-2-ol |  | 2.232
6 | 6-chloro-1-(ethylpropyl)-7-(5-methyl(1,2,4-oxadiazol-3-yl))imidazo[4,5-b]pyridin-2-ol |  | 4.017
7 | 6-chloro-7-(2-chloro-4-methoxyphenyl)-1-(ethylpropyl)imidazo[4,5-b]pyridin-2-ol |  | 1.898
8 | CCC(CC)n1c(O)nc2ncc(Cl)c(-c3cccs3)c21 [6-chloro-1-(ethylpropyl)-7-(2-thienyl)imidazo[4,5-b]pyridin-2-ol] | 0.136† | 
9 | 6-[6-chloro-1-(ethylpropyl)-2-hydroxyimidazo[4,5-b]pyridin-7-yl]pyridine-3-carbonitrile |  | 2.892
10 | 6-chloro-1-(ethylpropyl)-7-(2-pyridyl)imidazo[4,5-b]pyridin-2-ol |  | 1.616
11 | 6-chloro-1-(ethylpropyl)-7-(4-methoxyphenyl)imidazo[4,5-b]pyridin-2-ol |  | 0.728
12 | CC[C@@H](C)n1c(O)nc2nccc(-n3cccn3)c21 [1-((1R)-1-methylpropyl)-7-pyrazolylimidazo[4,5-b]pyridin-2-ol] |  | 18.6973
13 | 6-chloro-7-(4-chlorophenyl)-1-(ethylpropyl)imidazo[4,5-b]pyridin-2-ol | 0.074† | 
14 | CC[C@@H](CO)n1c(O)nc2ncc(Cl)c(-c3ccc(Cl)cc3)c21 [1-((1S)-1-ethyl-2-hydroxyethyl)-6-chloro-7-(4-chlorophenyl)imidazo[4,5-b]pyridin-2-ol] | 0.261† | 2.059
15 | 6-chloro-1-(ethylpropyl)-7-(6-methoxy(2-pyridyl))imidazo[4,5-b]pyridin-2-ol | 0.562† | 
16 | CC[C@@H](CNC(C)=O)c1nc2nc(O)[nH]c2c(-c2ccc(F)cc2)c1Cl [N-{(2S)-2-[6-chloro-7-(4-fluorophenyl)-2-hydroxyimidazo[4,5-b]pyridinyl]butyl}acetamide] |  | 8.4925
17 | CC(C)(CO)n1c(O)nc2ncc(Cl)c(-c3ccc(F)cc3)c21 [6-chloro-7-(4-fluorophenyl)-1-(2-hydroxy-tert-butyl)imidazo[4,5-b]pyridin-2-ol] |  | 0.760
18 | CC[C@H](CO)n1c(O)nc2ncc(Cl)c(-c3ccc(F)cn3)c21 [1-((1R)-1-ethyl-2-hydroxyethyl)-6-chloro-7-(5-fluoro(2-pyridyl))imidazo[4,5-b]pyridin-2-ol] |  | 7.658
19 | (tert-butoxy)-N-{4-[6-chloro-1-(ethylpropyl)-2-hydroxyimidazo[4,5-b]pyridin-7-yl]phenyl}-N-methylcarboxamide |  | 42.343
20 | CCC(CC)n1c(O)nc2ncc(Cl)c(-c3ccccc3C=O)c21 [2-[6-chloro-1-(ethylpropyl)-2-hydroxyimidazo[4,5-b]pyridin-7-yl]benzaldehyde] |  | 1.689
21 | CCC(COP(=O)(O)O)c1nc2nc(O)[nH]c2c(-c2ccc(F)c(F)c2)c1Cl (centres unmarked) [2-[7-(3,4-difluorophenyl)-6-chloro-2-hydroxyimidazo[4,5-b]pyridinyl]butyl dihydrogen phosphate] |  | 44.713
22 | 6-chloro-1-(ethylpropyl)-7-[4-(methoxymethyl)phenyl]imidazo[4,5-b]pyridin-2-ol |  | 34.746
23 | 6-chloro-7-(5-chloro(2-thienyl))-1-(ethylpropyl)imidazo[4,5-b]pyridin-2-ol | 0.084† | 

Row | Molecule | AC1.4 Median (cells marked †: Mean value) | AC1.4 Median (median value (no †))
24 | 6-chloro-7-(5-fluoro(2-pyridyl))-1-(methylethyl)imidazo[4,5-b]pyridin-2-ol |  | 2.323
25 | CC[C@@H](CO)n1c(O)nc2ncc(Cl)c(-c3ccc(F)cc3)c21 [1-(1S)-1-ethyl-2-hydroxyethyl)-6-chloro-7-(4-fluorophenyl)imidazo[4,5-b]pyridin-2-ol] | 0.363† | 
26 | CC[C@@H](CCO)n1c(O)nc2ncc(Cl)c(-c3ccc(F)cc3)c21 [1-((1S)-1-ethyl-3-hydroxypropyl)-6-chloro-7-(4-fluorophenyl)imidazo[4,5-b]pyridin-2-ol] | 0.475† | 
27 | 6-chloro-1-(ethylpropyl)-7-[3-(trifluoromethoxy)phenyl]imidazo[4,5-b]pyridin-2-ol |  | 2.369
28 | CCC(CC)n1c(O)nc2ncc(Cl)c(-c3ccc(C#N)c(F)c3)c21 [4-(6-chloro-2-hydroxy-1-(pentan-3-yl)-1H-imidazo[4,5-b]pyridin-7-yl)-2-fluorobenzonitrile] | 0.458† | 
29 | 2-[6-chloro-1-(ethylpropyl)-2-hydroxyimidazo[4,5-b]pyridin-7-yl]benzamide |  | 36.169
30 | 6-chloro-1-(ethylpropyl)-7-(3-pyridyl)imidazo[4,5-b]pyridin-2-ol |  | 8.030
31 | CC[C@@H](n1c(O)nc2ncc(Cl)c(-c3ccc(F)cc3)c21)C(C)(C)O [1-((1R)-1-ethyl-2-hydroxy-2-methylpropyl)-6-chloro-7-(4-fluorophenyl)imidazo[4,5-b]pyridin-2-ol] |  | 0.537
32 | 6-chloro-1-(ethylpropyl)-7-(4-methylphenyl)imidazo[4,5-b]pyridin-2-ol | 0.336† | 
33 | CCC(CC)n1c(O)nc2ncc(Cl)c(-c3ccsc3)c21 [6-chloro-1-(ethylpropyl)-7-(3-thienyl)imidazo[4,5-b]pyridin-2-ol] | 0.124† | 
34 | 6-chloro-7-(4-chloro-3-fluorophenyl)-1-(ethylpropyl)imidazo[4,5-b]pyridin-2-ol | 0.116† | 
35 | CC[C@@H](CO)n1c(O)nc2ncc(Cl)c(-c3ccc(C#N)cc3)c21 [4-[1-((1S)-1-ethyl-2-hydroxyethyl)-6-chloro-2-hydroxyimidazo[4,5-b]pyridin-7-yl]benzenecarbonitrile] |  | 3.249
36 | CC[C@@H](CO)n1c(O)nc2ncc(F)c(-c3ccc(F)cc3)c21 [1-((1S)-1-ethyl-2-hydroxyethyl)-6-fluoro-7-(4-fluorophenyl)imidazo[4,5-b]pyridin-2-ol] |  | 4.204
37 | 6-chloro-1-(ethylpropyl)-7-pyrazol-4-ylimidazo[4,5-b]pyridin-2-ol |  | 38.791
38 | CC[C@@H](CO)n1c(O)nc2ncc(Cl)c(-c3ccc(F)cn3)c21 [1-((1S)-1-ethyl-2-hydroxyethyl)-6-chloro-7-(5-fluoro(2-pyridyl))imidazo[4,5-b]pyridin-2-ol] |  | 7.549
39 | 6-chloro-1-(ethylpropyl)-7-pyrazol-3-ylimidazo[4,5-b]pyridin-2-ol |  | 26.881
40 | CCC(CC)n1c(O)nc2ncc(Cl)c(-c3ccccc3C(=O)O)c21 [2-[6-chloro-1-(ethylpropyl)-2-hydroxyimidazo[4,5-b]pyridin-7-yl]benzoic acid] |  | 30.881
41 | CC[C@H](COC(=O)[C@@H](N)C(C)C)c1nc2nc(O)[nH]c2c(-c2ccc(F)c(F)c2)c1Cl [(2S)-2-[7-(3,4-difluorophenyl)-6-chloro-2-hydroxyimidazo[4,5-b]pyridinyl]butyl (2S)-2-amino-3-methylbutanoate] |  | 6.640
42 | CC[C@@H](CO)n1c(O)nc2ncc(Cl)c(-c3ccsc3)c21 [1-((1S)-1-ethyl-2-hydroxyethyl)-6-chloro-7-(3-thienyl)imidazo[4,5-b]pyridin-2-ol] |  | 0.827
43 | CC[C@H](CNC(C)=O)c1nc2nc(O)[nH]c2c(-c2ccc(F)cc2)c1Cl [N-{(2R)-2-[6-chloro-7-(4-fluorophenyl)-2-hydroxyimidazo[4,5-b]pyridinyl]butyl}acetamide] |  | 15.6039
44 | CC(C)n1c(O)nc2ncc(Cl)c(-c3ccc(F)cc3)c21 [6-chloro-7-(4-fluorophenyl)-1-(methylethyl)imidazo[4,5-b]pyridin-2-ol] | 0.096† | 
45 | 6-chloro-1-(ethylpropyl)-7-(4-fluorophenyl)imidazo[4,5-b]pyridin-2-ol | 0.074† | 
46 | 6-chloro-7-(5-chloro(2-pyridyl))-1-(methylethyl)imidazo[4,5-b]pyridin-2-ol |  | 1.781
